Results as given in ChEMBL document CHEMBL3351354, “From the covalent linkage of drugs to novel inhibitors of ribonucleotide reductase: synthesis and biological evaluation of valproic esters of 3'-C-methyladenosine” (Bioorg Med Chem Lett, 2014).
One block for each compound: values may come before it. Active and inactive are the calls of the source. No cut-off for these calls is given here.

Legend:
[1] = test system: HeLa; test: Growth inhibition of human HeLa cells after 48 hrs by MTT assay; format: functional, cell-based
[2] = test system: MCF7; test: Growth inhibition of human MCF7 cells after 48 hrs by MTT assay; format: functional, cell-based
[3] = test system: HT-29; test: Growth inhibition of human HT-29 cells after 48 hrs by MTT assay; format: functional, cell-based
[4] = Growth inhibition of human HL60 cells after 48 hrs by MTT assay; format: functional, cell-based, HL-60
[5] = test system: K562; test: Growth inhibition of human K562 cells after 48 hrs by MTT assay; format: functional, cell-based
[6] = Growth inhibition of human Caco2 cells after 48 hrs by MTT assay; format: functional, cell-based, Caco-2
[7] = test system: HuT78; test: Growth inhibition of human HUT78 cells after 48 hrs by MTT assay; format: functional, cell-based
[8] = Half life in RPMI-1640 medium containing 10% fetal calf serum assessed as compound disappearance by HPLC-DAD-ESI-MS method; format: ADME, Bos taurus; settings: cattle
[9] = test system: HL-60; test: Induction of cell cycle arrest in human HL60 cells assessed as accumulation at G1 phase at 50 uM after 24 hrs by propidium iodide staining based flow cytometry (reference value: 32%); format: functional
[10] = test system: HL-60; test: Induction of apoptosis in human HL60 cells after 24 to 48 hrs by acridine orange and ethidium bromide staining based fluorescence microscopy; format: functional, cell-based; settings: Homo sapiens, HL-60; read-out: AC50
[11] = test system: HL-60; test: Induction of cell cycle arrest in human HL60 cells assessed as accumulation at G2M phase at 50 uM after 24 hrs by propidium iodide staining based flow cytometry (reference value: 12%); format: functional
[12] = Half life in pH 7.4 isotonic sodium phosphate buffer at 37 degC by HPLC-DAD-ESI-MS method; format: physicochemical
[13] = biological target: T1, Histone deacetylase (Homo sapiens) (UniProt Q13547+O15379+Q9UBN7+Q92769+Q9UQL6+Q8WUI4+Q9BY41+Q96DB2+P56524+Q9UKV0+Q969S8); test: Inhibition of HDAC in human HL60 cells assessed as increase in histone H3 acetylation at 10 and 100 uM after 24 hrs by Western blotting method; format: cell-based; settings: HL-60
[14] = biological target: T2, Ribonucleotide reductase (Homo sapiens) (UniProt P23921+Q7LG56); test: Inhibition of human recombinant ribonucleotide reductase at 0.1 mM; format: protein-complex assay
[15] = test system: HL-60; test: Induction of cell cycle arrest in human HL60 cells assessed as accumulation at S phase at 50 uM after 24 hrs by propidium iodide staining based flow cytometry (reference value: 54%); format: functional
[16] = biological target: T1, Histone deacetylase (Homo sapiens); test: Inhibition of HDAC in human HL60 cells assessed as increase in p21 expression at 50 uM after 24 hrs by flow cytometry; format: cell-based; settings: HL-60
[17] = biological target: T2, Ribonucleotide reductase (Homo sapiens); test: Inhibition of ribonucleotide reductase in human HL60 cells assessed as intracellular dNTP pools level at 50 uM after 1 hr by HPLC method; format: cell-based; settings: HL-60
[18] = test system: HL-60; test: Induction of ROS generation in human HL60 cells at 2 and 5 mM after 24 hrs by DCFH-DA staining based flow cytometry; format: functional, cell-based
[19] = test system: HL-60; test: Induction of cell cycle arrest in human HL60 cells assessed as accumulation at S phase at 20 uM after 24 hrs by propidium iodide staining based flow cytometry (reference value: 54%); format: functional
[20] = Cytotoxicity against human HL60 cells after 24 to 48 hrs by trypan blue dye exclusion method; format: functional, cell-based; settings: HL-60
[21] = test system: HL-60; test: Cytotoxicity against human HL60 cells at 20 to 100 uM after 24 to 48 hrs in presence of 2 mM VPA by trypan blue dye exclusion method; format: functional, cell-based
[22] = test system: HL-60; test: Induction of cell cycle arrest in human HL60 cells assessed as accumulation at G2M phase at 20 uM in presence of 2 mM VPA after 24 hrs by propidium iodide staining based flow cytometry (reference value: 12%); format: functional
[23] = test system: HL-60; test: Induction of cell cycle arrest in human HL60 cells assessed as accumulation at S phase at 20 uM in presence of 2 mM VPA after 24 hrs by propidium iodide staining based flow cytometry (reference value: 54%); format: functional
[24] = test system: HL-60; test: Induction of apoptosis in human HL60 cells at 20 uM in presence of 1 mM VPA after 24 to 48 hrs by acridine orange and ethidium bromide staining based fluorescence microscopy; format: functional, cell-based
[25] = test system: HL-60; test: Induction of cell cycle arrest in human HL60 cells assessed as accumulation at G2M phase at 20 uM after 24 hrs by propidium iodide staining based flow cytometry (reference value: 12%); format: functional
[26] = test system: HL-60; test: Induction of apoptosis in human HL60 cells at 20 uM in presence of 2 mM VPA after 24 to 48 hrs by acridine orange and ethidium bromide staining based fluorescence microscopy; format: functional
[27] = test system: HL-60; test: Cytotoxicity against human HL60 cells at 20 to 100 uM after 24 to 48 hrs in presence of 1 mM VPA by trypan blue dye exclusion method; format: functional, cell-based
[28] = test system: HL-60; test: Induction of cell cycle arrest in human HL60 cells assessed as accumulation at G1 phase at 20 uM in presence of 2 mM VPA after 24 hrs by propidium iodide staining based flow cytometry (reference value: 32%); format: functional
[29] = test system: HL-60; test: Induction of cell cycle arrest in human HL60 cells assessed as accumulation at G1 phase at 20 uM after 24 hrs by propidium iodide staining based flow cytometry (reference value: 32%); format: functional
[30] = Homo sapiens, HeLa, 48 h, read-out: IC50
[31] = Homo sapiens, MCF7, 48 h, read-out: IC50
[32] = Homo sapiens, HT-29, 48 h, read-out: IC50
[33] = Homo sapiens, HL-60, 48 h, read-out: IC50
[34] = Homo sapiens, K562, 48 h, read-out: IC50
[35] = Homo sapiens, Caco-2, 48 h, read-out: IC50
[36] = Homo sapiens, HuT78, 48 h, read-out: IC50

IC50 ([1]; hela): ND(Insoluble)
IC50 ([2]; mcf7): ND(Insoluble)
IC50 ([3]; ht-29): ND(Insoluble)
IC50 ([5]; k562): ND(Insoluble)
SMILES: CCCC(CCC)C(=O)Nc1ncnc2c1ncn2[C@@H]1O[C@H](COC(=O)C(CCC)CCC)[C@@](C)(O)[C@H]1OC(=O)C(CCC)CCC
IC50 ([4]; hl-60): ND(Insoluble)
IC50 ([6]; caco-2): ND(Insoluble)
IC50 ([7]; hut78): ND(Insoluble)

half-life [8]: > 72 h
IC50 [1, 30]: 54.4 µM
IC50 [2, 31]: 57.8 µM
IC50 [3, 32]: 54.6 µM
half-life [12]: > 72 h
inhibition [13]: inactive
inhibition [14]: inactive
IC50 [5, 34]: 51.9 µM
inhibition [16]: inactive
inhibition [17]: inactive
SMILES: CCCC(CCC)C(=O)OC[C@H]1O[C@@H](n2cnc3c(N)ncnc32)[C@H](OC(=O)C(CCC)CCC)[C@]1(C)O
Activity [9]: 71%
AC50 [10]: 140 µM
Activity [11]: 0%
Activity [15]: 29%
IC50 [4, 33]: 16.3 µM
IC50 [6, 35]: 55.1 µM
Activity [18]: inactive
IC50 [7, 36]: 30 µM

half-life [8]: 43.5 h
IC50 [1, 30]: 23.3 µM
IC50 [2, 31]: 22.4 µM
IC50 [3, 32]: 26.1 µM
IC50 [5, 34]: 9.4 µM
SMILES: C[C@@]1(O)[C@@H](CO)O[C@@H](n2cnc3c(N)ncnc32)[C@@H]1O
Activity [19]: 60%
AC50 [10]: 75 µM
IC50 [20]: 15 µM
Activity [21]: Active
Activity [22]: 11%
Activity [23]: 61%
Activity [24]: Active
IC50 [4, 33]: 15.6 µM
Activity [25]: 9%
IC50 [6, 35]: 24.3 µM
Activity [26]: 90%
Activity [27]: inactive
IC50 [7, 36]: 17.3 µM
Activity [28]: 28%
Activity [29]: 31%
